Data on 69 compounds can be found in patent US7879846B2, “Serine hydrolase inhibitors” (Kyorin Pharmaceutical Co.., Ltd., priority 2006, dated 2011).

pIC50: −log10 of the molar value.

As a reminder, the pIC50 is the negative decadic logarithm of the IC50, by convention in mol/L.

This test deals with T1, Human sputum neutrophil elastase (Homo sapiens, UniProt P08246).
T1 construct: purchased Elastin Products Co; host or cells: human sputum (natural source)
T1 sequence (P08246 30-247 limits assumed): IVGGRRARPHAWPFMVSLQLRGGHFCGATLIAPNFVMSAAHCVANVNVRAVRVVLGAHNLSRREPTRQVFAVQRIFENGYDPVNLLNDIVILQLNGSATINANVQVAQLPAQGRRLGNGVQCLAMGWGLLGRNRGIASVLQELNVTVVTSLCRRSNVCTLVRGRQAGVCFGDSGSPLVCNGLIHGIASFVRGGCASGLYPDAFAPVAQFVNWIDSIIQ
Description: Inhibitor IC50 against human neutrophil elastase (fluorogenic MeOSuc-AAPV-AMC substrate). Format: biochemical. The settings on record: 20 min preincubation, read-out: HNE IC50. As for the experimental part: Determination of Inhibitor IC50 Values Against Human Neutrophil Elastase
Human sputum neutrophil elastase (Elastin Products Co.) was diluted into Assay Buffer A (200 mM Tris pH 7.4, 1 mg/ml BSA) to a working concentration of 0.55 U/ml. […] DMSO alone was used as the negative control. MeOSuc-AAPV-AMC (Bachem) substrate was dissolved in DMSO to 20 mM and further diluted to 1 mM in Assay Buffer A immediately before use. Substrate was added to the elastase assay at a final concentration of 1×10^−4 M. The reaction was allowed to proceed for 20 minutes at room temperature and then quenched with acetic acid at a final concentration of 3% (v/v). […] Fluorescence intensity versus inhibitor concentration was plotted and fit to the Hill equation to quantify IC50 values.
Turning to `CCc1cc(OC)cc2nc(-c3cccnc3N3CCCN(C)CC3)oc(=O)c12` [Compound 195], the pIC50 is > 7.82.
As to `CCc1cc(OC)cc2nc(-c3cccnc3N(C)CCCN(C)C)oc(=O)c12` [Compound 241], the negative-log IC50 (pIC50) is > 7.82.
In the case of `CCc1cc(OC)cc2nc(-c3cccnc3N3CC[C@@H](N4CCS(=O)(=O)CC4)C3)oc(=O)c12` [Compound 269], the pIC50 is > 7.82.
Take `CCc1cc(OC)cc2nc(-c3cccnc3N3CCC(N4CCOCC4)CC3)oc(=O)c12` [Compound 251]: the negative logarithm of the IC50 (pIC50) is > 7.82.
Turning to `CCc1cc(OC)cc2nc(-c3cccnc3N3CCN(CCOCCO)CC3)oc(=O)c12` [Compound 210], the negative-log IC50 (pIC50) was 7.22 to 7.80.
`C#CCN1CCN(c2ncccc2-c2nc3cccc(C(F)(F)F)c3c(=O)o2)CC1` [Compound 235]: the negative-log IC50 (pIC50) was > 7.82.
Take `CCc1cc(OC)cc2nc(-c3cccnc3N3CCC(CCN(C)C)CC3)oc(=O)c12` [Compound 248]: the pIC50 is > 7.82.
On to `CCc1cccc2nc(-c3cccnc3-n3ccnc3)oc(=O)c12` [Compound 67], for which the pIC50 is > 7.82.
Under `Cc1cccc2nc(-c3cccnc3SCCS(=O)(=O)c3ccccc3)oc(=O)c12` [Compound 29] stands 7.22 to 7.80; under `Cc1cccnc1-c1nc2cccc(C)c2c(=O)o1` [Compound 19], < 6.82.
Under `CCc1cc(OC)cc2nc(-c3cccnc3N3CCN(C(C)C)CC3)oc(=O)c12` [Compound 201] stands 7.22 to 7.80.
Under `Cc1cccc2nc(-c3cccnc3N3CCS(=O)(=O)CC3)oc(=O)c12` [Compound 62] stands < 6.82; under `COc1cc(C(C)C)c2c(=O)oc(-c3cccnc3N3CC[C@@H](N(C)C)C3)nc2c1` [Compound 110], 6.82 to 7.21.
For the compound `COc1cc(C(C)C)c2c(=O)oc(-c3cccnc3N3CCCN(C)CC3)nc2c1` [Compound 122], the negative logarithm of the IC50 (pIC50) was 6.82 to 7.21.
The value for `CCc1cc(OC)cc2nc(-c3cccnc3N3CCC(CCN4CCOCC4)CC3)oc(=O)c12` [Compound 247] was > 7.82; that for `CCc1cccc2nc(-c3cccnc3N3CC[N+](C)(Cc4ccc(OC)cc4)CC3)oc(=O)c12` [Compound 102] was > 7.82.
The value for `CCc1cc(OC)cc2nc(-c3cccnc3N3CCC(c4c[nH]cn4)CC3)oc(=O)c12` [Compound 275] was > 7.82; that for `COc1cc(C(C)C)c2c(=O)oc(-c3cnn(C)c3N3CCN(CCN(C)C)CC3)nc2c1` [Compound 125] was < 6.82.
Regarding `Cc1ccc(Sc2ncccc2-c2nc3cccc(Cl)c3c(=O)o2)cc1` [Compound 28], the pIC50 was 6.82 to 7.21.
Take `CCc1cc(OC)cc2nc(-c3cccnc3N3CCCCC3)oc(=O)c12` [Compound 226]: the pIC50 is 7.22 to 7.80.
Take `Cc1cccc2nc(-c3cccnc3-n3cc[n+](C)c3)oc(=O)c12` [Compound 65]: the pIC50 was < 6.82.
The value for `CCc1cc(OC)cc2nc(-c3ccnc(N4CCN(C)CC4)c3)oc(=O)c12` [Compound 205] was < 6.82.
With `COc1cc(C2CC2)c2c(=O)oc(-c3cccnc3N3CCN(CC4CC4)CC3)nc2c1` [Compound 166], the pIC50 is 6.82 to 7.21.
For the compound `CCc1cccc2nc(-c3cccnc3N3CC[C@@H](N(C)C)C3)oc(=O)c12` [Compound 100], the negative-log IC50 (pIC50) is > 7.82.
As to `CCc1cc(OC)cc2nc(-c3cccnc3-n3ccnc3)oc(=O)c12` [Compound 106], the negative logarithm of the IC50 (pIC50) was > 7.82.
Regarding `CCc1cc(OC)cc2nc(-c3cccnc3N3CCN(CC4OCCO4)CC3)oc(=O)c12` [Compound 191], the pIC50 was > 7.82.
As to `COCCN1CCN(c2ncccc2-c2nc3cc(OC)cc(C(C)C)c3c(=O)o2)CC1` [Compound 113], the negative-log IC50 (pIC50) was 6.82 to 7.21.
Under `COC(=O)[C@H]1CCCN1c1ncccc1-c1nc2cccc(C)c2c(=O)o1` [Compound 33] stands 7.22 to 7.80; under `CCc1cc(OC)cc2nc(-c3cccnc3N3CCN(CC(=O)N4CCOCC4)CC3)oc(=O)c12` [Compound 197], > 7.82; under `COc1cc(C(C)C)c2c(=O)oc(-c3cnn(C)c3N3CC[C@H](N(C)C)C3)nc2c1` [Compound 126], < 6.82.
The value for `COc1cc(C2CCC2)c2c(=O)oc(-c3cccnc3N(C)CCN(C)C)nc2c1` [Compound 188] was 7.22 to 7.80; that for `COc1cccc2nc(-c3cccnc3N3CCN(C)C(C)C3)oc(=O)c12` (stereo not drawn) [Compound 45] was < 6.82.
The value for `O=c1oc(-c2cccnc2-n2ccnc2)nc2cccc(Br)c12` [Compound 72] was 6.82 to 7.21; that for `O=c1oc(-c2cccnc2Oc2ccc(Cl)cc2)nc2cccc(Cl)c12` [Compound 25] was 7.22 to 7.80; that for `CCc1cc(OC)cc2nc(-c3cccc(N4CCN(C)CC4)n3)oc(=O)c12` [Compound 206] was 7.22 to 7.80.
On to `CCc1cccc2cc(-c3c[n+]([O-])ccc3Sc3ccc(Cl)cc3)oc(=O)c12` [Compound 86], for which the pIC50 is 6.82 to 7.21.
With `COc1cc(C(C)C)c2c(=O)oc(-c3cnn(C)c3N3CCC(N(C)C)C3)nc2c1` (stereo not drawn) [Compound 127], the pIC50 is < 6.82.
The value for `CCc1cc(OC)cc2nc(-c3cccnc3N3CCN(c4ccncc4)CC3)oc(=O)c12` [Compound 252] was > 7.82; that for `CCc1cccc2nc(-c3cccnc3N3CCN4CCCC4C3)oc(=O)c12` (stereo not drawn) [Compound 104] was > 7.82; that for `COc1cc(C2CC2)c2c(=O)oc(-c3cccnc3N3CCCN(C)CC3)nc2c1` [Compound 140] was 6.82 to 7.21.
Under `CCc1cc(OC)cc2nc(-c3cccnc3N3CC[C@@H](N(C)C)C3)oc(=O)c12` [Compound 131] stands > 7.82; under `COc1cc(C(C)C)c2c(=O)oc(-c3cccnc3-n3ccnc3)nc2c1` [Compound 109], 7.22 to 7.80.
Regarding `CCc1cc(OC)cc2nc(-c3cccnc3N3CCN(CCNC(=O)OC(C)(C)C)CC3)oc(=O)c12` [Compound 202], the pIC50 was 7.22 to 7.80.
For the compound `C#CCN1CCN(c2ncccc2-c2nc3cc(OC)cc(CC)c3c(=O)o2)CC1` [Compound 233], the pIC50 was 7.22 to 7.80.
Under `CCc1cc(OC)cc2nc(-c3cccnc3N3CC4(C)CN(C)CC(C)(C3)C4O)oc(=O)c12` (stereo not drawn) [Compound 255] stands > 7.82; under `CCc1cc(OC)cc2nc(-c3cccnc3N(C)CC3CCN(C)CC3)oc(=O)c12` [Compound 242], > 7.82; under `COc1ccc(-c2nc3cccc(Cl)c3c(=O)o2)c(OC)n1` [Compound 38], > 7.82.
The value for `CCc1cccc2nc(-c3cccnc3N3CCN(Cc4ccc(F)cc4)CC3)oc(=O)c12` [Compound 99] was > 7.82.
Consider `O=c1oc(-c2ccccn2)nc2cc(Cl)cc(Cl)c12` [Compound 11], for which the pIC50 was < 6.82.
The value for `CCc1cc(OC)cc2nc(-c3cccnc3N3CCN(CCCC#N)CC3)oc(=O)c12` [Compound 219] was 7.22 to 7.80; that for `CCc1cc(OC)cc2nc(-c3cccnc3N(C)CCN3CCCC3)oc(=O)c12` [Compound 237] was > 7.82.
Under `CCCc1cc(OC)cc2nc(-c3cccnc3N3CCN(CCN4CCOCC4)CC3)oc(=O)c12` [Compound 147] stands 6.82 to 7.21.
The value for `CCc1cc(OC)cc2nc(-c3cccnc3N3CCC[C@H]3CN3CCCC3)oc(=O)c12` [Compound 271] was > 7.82; that for `Cc1cccc2nc(-c3cccnc3OCCOCCOCCOCCO)oc(=O)c12` [Compound 57] was 6.82 to 7.21.
As to `COc1cc(C(C)C)c2c(=O)oc(-c3cccnc3N3CC[N+](C)(C)CC3)nc2c1` [Compound 130], the negative logarithm of the IC50 (pIC50) is 6.82 to 7.21.
Under `CCc1cc(OC)cc2nc(-c3cccnc3N3CC[C@@H](N(C)CCO)C3)oc(=O)c12` [Compound 270] stands > 7.82.
Consider `Cc1cccc2nc(-c3cccnc3N3CC[C@H](N(C)C)C3)oc(=O)c12` [Compound 177], for which the negative-log IC50 (pIC50) was 7.22 to 7.80.
As for `CCc1cccc2nc(-c3cccnc3N3CC[C@H](N(C)C)C3)oc(=O)c12` [Compound 91], the negative logarithm of the IC50 (pIC50) is > 7.82.
The value for `COCCN1CCN(c2ncccc2-c2nc3cc(OC)cc(C4CC4)c3c(=O)o2)CC1` [Compound 167] was 6.82 to 7.21; that for `O=c1oc(-c2cccnc2-n2ccnc2)nc2cccc(C(F)(F)F)c12` [Compound 64] was > 7.82; that for `COc1cc(C)c2c(=O)oc(-c3cccnc3-n3ccnc3)nc2c1` [Compound 83] was < 6.82.
On to `CCOC(=O)CCN1CCN(c2ncccc2-c2nc3cc(OC)cc(CC)c3c(=O)o2)CC1` [Compound 221], for which the pIC50 is 7.22 to 7.80.
On to `COc1cccc2nc(-c3cccnc3N(C)CC(=O)OCc3ccccc3)oc(=O)c12` [Compound 41], for which the pIC50 was < 6.82.
The value for `CCc1cccc2nc(-c3cccnc3N3CCN(CCN(C)C)CC3)oc(=O)c12` [Compound 162] was > 7.82; that for `O=c1oc(-c2cccnc2Oc2ccccc2)nc2cc(Cl)cc(Cl)c12` [Compound 14] was < 6.82.
For `Cc1cccc2nc(-c3cccnc3OCCOCCOCCOCCOc3ncccc3-c3nc4cccc(C)c4c(=O)o3)oc(=O)c12` [Compound 59], the negative-log IC50 (pIC50) is 6.82 to 7.21.
On to `Cc1cccc2nc(-c3ccncc3)oc(=O)c12` [Compound 9], for which the negative-log IC50 (pIC50) is < 6.82.
The value for `CCSc1ncccc1-c1nc2cccc(C)c2c(=O)o1` [Compound 40] was < 6.82; that for `COc1cccc2nc(-c3cccnc3N3CCC[C@H]3C(=O)OC(C)(C)C)oc(=O)c12` [Compound 42] was < 6.82.
